From PMC9844085, “Bioinformatics-Structural Approach to the Search for New D-Amino Acid Oxidases” (Acta Naturae, 2022)

Target: T1, NhyDAAO (Natronosporangium hydrolyticum, UniProt A0A895YFV4)
T1 construct: gene JQS43_10680; recombinant, gene cloned, expression in E. coli in progress
T1 sequence (A0A895YFV4 1-316): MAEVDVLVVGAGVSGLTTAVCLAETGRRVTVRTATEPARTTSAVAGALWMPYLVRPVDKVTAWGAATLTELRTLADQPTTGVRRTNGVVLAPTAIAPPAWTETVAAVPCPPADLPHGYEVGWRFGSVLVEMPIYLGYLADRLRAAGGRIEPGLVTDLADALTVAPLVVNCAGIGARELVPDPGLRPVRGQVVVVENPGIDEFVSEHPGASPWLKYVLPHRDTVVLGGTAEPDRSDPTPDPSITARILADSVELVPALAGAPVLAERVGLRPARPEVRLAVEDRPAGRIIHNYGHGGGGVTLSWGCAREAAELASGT
Assay: D-amino acid oxidase activity, preliminary experiments, method not given
Type: cell-based
Conditions: conditions and enzyme purity not told; named among the best substrates

Compound	D-amino acid oxidase activity, preliminary experiments, method not given
CC(C)C[C@@H](N)C(=O)O [D-Leu]	Preliminary experiments confirmed that D-Leu and D-Phe are the best substrates for NhyDAAO
N[C@H](Cc1ccccc1)C(=O)O [D-Phe]	Preliminary experiments confirmed that D-Leu and D-Phe are the best substrates for NhyDAAO
